The text below walks through data of patent US11702414B2, “Thiadiazole IRAK4 inhibitors” (Gilead Sciences, Inc., priority 2018, dated 2023).

The subject of the first experiment is TNFα. The experiment is described as follows: IRAK4 Monocyte TNFα Cell Based Assay. Set-up: species or system human. To be noted: Homo sapiens, Monocyte, human monocytes, LPS-stimulated; compounds 1-32; read-out: EC50 TNF. As to the method: IRAK4 Monocyte TNFα Cell Based Assay Procedure:
The cell suspension was then plated at a density of 5,000 cells/well onto black 384 well Greiner clear bottom plates. Plates were pre-spotted with test compounds and serially diluted in DMSO where 40 nL/well were delivered using the Echo 550 acoustic liquid dispenser (Labcyte®) for a final DMSO concentration of 0.1%. Plated cells were treated with compound for 1 hour at 37° C. Cells were then stimulated with 50 pg/ml of LPS (Sigma) excluding outside columns of plate used for unstimulated cell control wells. Cells were incubated for an additional 4 hours at 37° C. Cells were then spun out of the media and 5μl of sample were taken and analyzed for total TNFα content using the TR-FRET Human TNFα detection system (CisBio). This system utilizes two labeled antibodies (cryptate and XL665) that bind to two different epitopes of the TNFα molecule and produce FRET signal proportional to the concentration of TNFα in the sample. Detection antibodies are mixed 50:50 and 5 μL were dispensed into each well. Plates were covered with clear seals and incubated at room temp overnight. […] Percent of control was calculated as follows: % Control=100×(RatioSample−Ratio0% Stimulation)/(Ratio100% Stimulation−Ratio0% Stimulation) where unstimulated cells (0% stimulation) were the negative control and stimulated cells (100% stimulation) were used as the positive control.
For `CC(=O)N[C@H]1CC[C@H](c2nnc(-c3cnc(-c4ccc5cc(C#N)cnn45)cc3N[C@H]3CC[C@H](c4nnc(C(F)F)o4)CC3)s2)CC1` [Example 2], the EC50 was 8 nM.
The same measure, in the same setting: the value for `CC(=O)N[C@H]1CC[C@H](c2nnc(-c3cnc(-c4ccc5cc(C#N)cnn45)cc3NCC#N)s2)CC1` [Example 20, N-((1r,4r)-4-(5-(4-((cyanomethyl)amino)-6-(3-cyanopyrrolo[1,2-b]pyridazin-7-yl)pyridin-3-yl)-1,3,4-thiadiazol-2-yl)cyclohexyl)acetamide] was 6 nM; that for `CC(=O)N[C@H]1CC[C@H](c2nnc(-c3cnc(-c4ccc5cc(C#N)cnn45)cc3NC3COC3)s2)CC1` [Example 21, N-((1r,4r)-4-(5-(6-(3-cyanopyrrolo[1,2-b]pyridazin-7-yl)-4-(oxetan-3-ylamino)pyridin-3-yl)-1,3,4-thiadiazol-2-yl)cyclohexyl)acetamide] was 10 nM; that for `COC(=O)NC[C@H]1C[C@H](Nc2cc(-c3ccc4cc(C#N)cnn34)ncc2-c2nnc([C@H]3CC[C@H](NC(C)=O)CC3)s2)C1` [Example 23, methyl (((1R,3r)-3-((5-(5-((1r,4R)-4-acetamidocyclohexyl)-1,3,4-thiadiazol-2-yl)-2-(3-cyanopyrrolo[1,2-b]pyridazin-7-yl)pyridin-4-yl)amino)cyclobutyl)methyl)carbamate] was 6 nM.

Still in this experiment, the particulars now being: Homo sapiens, Monocyte, human monocytes; second part of Table 2 (compounds 33-343); unit inferred; read-out: EC50MONO TNF HTRF.
As to `CC(=O)N[C@@H]1CCN(c2nnc(-c3cnc(-c4ccc5cc(C#N)cnn45)cc3NC(C)C)s2)C[C@@H]1O` [Example 63, N-((3S,4R)-1-(5-(6-(3-cyanopyrrolo[1,2-b]pyridazin-7-yl)-4-(isopropylamino)pyridin-3-yl)-1,3,4-thiadiazol-2-yl)-3-hydroxypiperidin-4-yl)acetamide], the EC50 worked out at 13.8 nM.

Staying with this experiment, now noted: Homo sapiens, Monocyte, read-out: EC50MONO TNF HTRF.
In the case of `CC(C)Nc1cc(-c2ccc3cc(C#N)cnn23)ncc1-c1nnc(N2CC3CC(C2)N3C(=O)C2CCN(C)CC2)s1` [Example 117, 7-(4-(isopropylamino)-5-(5-(6-(1-methylpiperidine-4-carbonyl)-3,6-diazabicyclo[3.1.1]heptan-3-yl)-1,3,4-thiadiazol-2-yl)pyridin-2-yl)pyrrolo[1,2-b]pyridazine-3-carbonitrile], the EC50 came to 11.1 nM.

Still in this experiment, the particulars now being: human monocytes; second part of Table 2 (compounds 33-343); unit inferred; read-out: EC50MONO TNF HTRF.
`CC(C)Nc1cc(-c2ccc3cc(C#N)cnn23)ncc1-c1nnc(C23CCC(O)(CC2)CC3)s1` [Example 89, 7-(5-(5-(4-hydroxybicyclo[2.2.2]octan-l-yl)-1,3,4-thiadiazol-2-yl)-4-(isopropylamino)pyridin-2-yl)pyrrolo[1,2-b]pyridazine-3-carbonitrile]: the EC50 was found to be 11.3 nM.
On to `C[C@H](C#N)Nc1cc(-c2ccc3cc(C#N)cnn23)ncc1-c1nnc(N2C[C@H]3CC[C@@H](C2)[C@@H]3NC(=O)C2CC2)s1` [Example 148, N-((1R,5S,8S)-3-(5-(4-(((R)-1-cyanoethyl)amino)-6-(3-cyanopyrrolo[1,2-b]pyridazin-7-yl)pyridin-3-yl)-1,3,4-thiadiazol-2-yl)-3-azabicyclo[3.2.1]octan-8-yl)cyclopropanecarboxamide], for which the EC50 was 1.4 nM.
Same read-out and setting: next, `CC(C)Nc1cc(-c2ccc3cc(C#N)cnn23)ncc1-c1nnc(N2CC[C@@H](O)C(F)(F)C2)s1` [Example 162, (R)-7-(5-(5-(3,3-difluoro-4-hydroxypiperidin-l-yl)-1,3,4-thiadiazol-2-yl)-4-(isopropylamino)pyridin-2-yl)pyrrolo[1,2-b]pyridazine-3-carbonitrile]: 26.5 nM; `C[C@H](C#N)Nc1cc(-c2ccc3cc(C#N)cnn23)ncc1-c1nnc(N2CC3CC(C2)O3)s1` [Example 178, 7-(5-(5-(6-oxa-3-azabicyclo[3.1.1]heptan-3-yl)-l,3,4-thiadiazol-2-yl)-4-(((R)-1-cyanoethyl)amino)pyridin-2-yl)pyrrolo[1,2-b]pyridazine-3-carbonitrile]: 4.9 nM; `CC(=O)N[C@@H]1CCN(c2nnc(-c3cnc(-c4ccc5cc(C#N)cnn45)cc3NC3COC3)s2)CC1(F)F` [Example 183, (R)-N-(1-(5-(6-(3-cyanopyrrolo[l,2-b]pyridazin-7-yl)-4-(oxetan-3-ylamino)pyridin-3-yl)-1,3,4-thiadiazol-2-yl)-3,3-difluoropiperidin-4-yl)acetamide]: 8.8 nM.
As for `CC1(O)CCN(c2nnc(-c3cnc(-c4ccc5cc(C#N)cnn45)cc3NC3COC3)s2)CC1` [Example 187, 7-(5-(5-(4-hydroxy-4-methylpiperidin-1-yl)-1,3,4-thiadiazol-2-yl)-4-(oxetan-3-ylamino)pyridin-2-yl)pyirolo[1,2-b]pyridazine-3-carbonitrile], the EC50 was found to be 10.8 nM.
On to `CC1(O)CCN(c2nnc(-c3cnc(-c4ccc5cc(C#N)cnn45)cc3NC3CCOCC3)s2)CC1` [Example 188, 7-(5-(5-(4-hydroxy-4-methylpiperidin-l-yl)-1,3,4-thiadiazol-2-yl)-4-((tetrahydro-2H-pyran-4-yl)amino)pyridin-2-yl)pyrrolo[1,2-b]pyridazine-3-carbonitrile], for which the EC50 turned out to be 7.6 nM.
On the same count and under the same terms, the value for `CC(C)Nc1cc(-c2ccc3cc(C#N)cnn23)ncc1-c1nnc(N2CC[C@@](C)(O)[C@H](F)C2)s1` [Example 191, 7-(5-(5-((3R,$R)-3-fluoro-4-hydroxy-4-methylpiperidin-1-yl)-1,3,4-thiadiazol-2-yl)-4-(isopropylamino)pyridin-2-yl)pyrrolo[1,2-b]pyridazine-3-carbonitrile] was 22.9 nM; that for `C[C@]1(O)CCN(c2nnc(-c3cnc(-c4ccc5cc(C#N)cnn45)cc3NC3CCOCC3)s2)C[C@@H]1F` [Example 204, 7-(5-(5-((3S,4S)-3-fluoro-4-hydroxy-4-methylpiperidin-l-yl)-1,3,4-thiadiazol-2-yl)-4-((tetrahydro-2H-pyran-4-yl)amino)pyridin-2-yl)pyrrolo[1,2-b]pyridazine-3-carbonitrile] was 3.5 nM.
Consider `CC(C)Nc1cc(-c2ccc3cc(C#N)cnn23)ncc1-c1nnc(CCN)s1` [Example 212, 7-(5-(5-(2-aminoethyl)-l,3,4-thiadiazol-2-yl)-4-(isopropylamino)pyridin-2-yl)pyrrolo[1,2-b]pyridazine-3-carbonitrile], for which the EC50 was found to be 305 nM.
In the case of `CC(C)Nc1cc(-c2ccc3cc(C#N)cnn23)ncc1-c1nnc(C(=O)N2CC[C@H](CO)C2)s1` [Example 221, (S)-7-(5-(5-(3-(hydroxymethyl)pyrrolidine-l-carbonyl)-1,3,4-thiadiazol-2-yl)-4-(isopropylamino)pyridin-2-yl)pyrrolo[1,2-b]pyridazine-3-carbonitrile], the EC50 is 2320 nM.
